Drawing on patent publication US20250206732A1, “COMPOUNDS AND METHODS FOR THE TARGETED DEGRADATION OF KRAS” (Arvinas Operations, Inc., priority 2022, published 2025), this text covers DC50 and Dmax for five compounds.

This experiment deals with T1, AsPC-1 HiBiT-KRASG12D (Homo sapiens, UniProt P01116, G12D).
T1 construct: insert the HiBiT tag onto the N-terminus of one or more of the endogenous KRAS alleles; endogenous in cells; host or cells: AsPC-1 (ATCC CRL-1682), CRISPR-Cas9 knock-in clone, one tagged allele
Kind of experiment: HiBiT degradation assay (G12D), AsPC-1 HiBiT-KRASG12D cells. It is filed as cell-based. Particulars: 24 hours treatment; for DC50: AsPC-1 HiBiT-KRASG12D cells, HiBiT luminescence; for Dmax: ASPC1, AsPC-1 HiBiT-KRASG12D cells, maximum degradation observed. The source says: Reagents. […] SW1573 cells are homozygous for the G12C mutation in KRAS, AsPC-1 cells are homozygous for the G12D mutation, and SW620 cells are homozygous for the G12V mutation. […] For degradation assays, 384 well plates were used. Alamar blue was purchased from ThermoFisher scientific (A50101) and used according to manufacturer instructions. The Nano-Glo® HiBiT Lytic Detection System and Nano-Glo® HiBiT Blotting System were purchased from Promega (#N3050 and #N2410) and used according to manufacturer instructions.
To create the AsPC-1 HiBiT-KRASG12D cell line, CRISPR-Cas9 was used to insert the HiBiT tag onto the N-terminus of one or more of the endogenous KRAS alleles. […] After knock-in of the tag, individual clones were isolated by single cell dilution and screened for HiBiT insertion by PCR. […] This clone was used in further studies.
HiBiT degradation assays (G12C and G12D). […] All assays were performed in triplicate. Cells were treated with compounds for 24 hours at 37° C. in an incubator containing 5% CO2. Following treatment, alamar blue was used to determine if any compounds led to a loss in cell viability after 24 hours. The 10× alamar blue reagent was added to a final concentration of 1× as recommended by the manufacturer and cells were returned to the incubator for 4 hours. Plates were then allowed to equilibrate to room temperature and fluorescence was measured using a Perkin-Elmer EnVision. After completion of the fluorescence read, the liquid from each well was removed and the cells were washed with PBS. The Nano-Glo® HiBiT detection reagent was prepared according to the manufacturer's instructions and added to each well after the PBS wash was removed. Following incubation at room temperature for 45 minutes, the luminescence was read using the ultra-sensitive luminescence aperture on the Envision instrument.
Data analysis. Fluorescence values from the alamar blue treatment were normalized to the DMSO-only control for each compound titration.
In general terms: The HiBiT peptide binds its large partner to form an active luciferase.

Some results are limits rather than exact numbers.

T1 sequence (P01116 1-188 isoform P01116-2 G12D): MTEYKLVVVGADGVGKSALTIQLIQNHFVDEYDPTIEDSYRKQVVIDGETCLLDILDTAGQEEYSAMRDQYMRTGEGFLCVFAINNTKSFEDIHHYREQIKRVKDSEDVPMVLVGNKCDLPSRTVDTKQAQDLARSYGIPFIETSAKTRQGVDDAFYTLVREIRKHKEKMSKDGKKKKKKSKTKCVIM

On to `CCc1cccc2cccc(-c3ncc4c(N5CCCCCC5)nc(OC[C@@]56CCCN5[C@@H](COC(=O)N5CCN(c7cc([C@H](C(=O)N8C[C@H](O)C[C@H]8C(=O)N[C@@H](C)c8ccc(-c9scnc9C)cc8)C(C)C)on7)CC5)CC6)nc4c3F)c12` (relative stereo) [Compound 49], for which the DC50 was above 3000 nM.
In turn, `Cc1ncsc1-c1ccc([C@H](C)NC(=O)[C@@H]2C[C@@H](O)CN2C(=O)[C@@H](c2cc(N3CCN(C(=O)OC[C@H]4CC[C@]5(COc6nc(N7CC8CCC(C7)N8)c7cnc(-c8cccc9ccc(F)c(F)c89)c(F)c7n6)CCCN45)CC3)no2)C(C)C)cc1` (relative stereo) [Compound 63, [(3R,7aS)-7a-{[(4-{3,8-diazabicyclo[3.2.1]octan-3-yl}-7-(7,8-difluoronaphthalen-1-yl)-8-fluoropyrido[4,3-d]pyrimidin-2-yl)oxy]methyl}-hexahydro-1H-pyrrolizin-3-yl]methyl 4-{5-[(2R*)-1-[(2S,4R)-4-hydroxy-2-{[(1S)-1-[4-(4-methyl-1,3-thiazol-5-yl)phenyl]ethyl]carbamoyl}pyrrolidin-1-yl]-3-methyl-1-oxobutan-2-yl]-1,2-oxazol-3-yl}piperazine-1-carboxylate] had a Dmax of 20 to 60% and a DC50 below 600 nM.
For the compound `Cc1ncsc1-c1ccc([C@H](C)NC(=O)[C@@H]2C[C@@H](O)CN2C(=O)[C@@H](c2cc(N3CC4(CCN(CCOc5nc(N6CC7CCC(C6)N7)c6cnc(-c7cc(O)cc8ccc(F)c(F)c78)c(F)c6n5)CC4)C3)no2)C(C)C)cc1` (relative stereo) [Compound 68, (2S,4R)-1-[(2R*)-2-[3-(7-{2-[(4-{3,8-diazabicyclo[3.2.1]octan-3-yl}-7-(7,8-difluoro-3-hydroxynaphthalen-1-yl)-8-fluoropyrido[4,3-d]pyrimidin-2-yl)oxy]ethyl}-2,7-diazaspiro[3.5]nonan-2-yl)-1,2-oxazol-5-yl]-3-methylbutanoyl]-4-hydroxy-N-[(1S)-1-[4-(4-methyl-1,3-thiazol-5-yl)phenyl]ethyl]pyrrolidine-2-carboxamide], the Dmax fell in the range of 80 to 100% and the DC50 is below 600 nM.
`CCc1cccc2cc(O)cc(-c3ncc4c(N5CC6CCC(C5)N6)nc(OCCN5CC[C@H]6CN(c7cc([C@H](C(=O)N8C[C@H](O)C[C@H]8C(=O)N[C@@H](C)c8ccc(-c9scnc9C)cc8)C(C)C)on7)C[C@H]6C5)nc4c3F)c12` (relative stereo) [Compound 69, (2S,4R)-1-[(2R*)-2-{3-[(3aR**,7aR***)-5-{2-[(4-{3,8-diazabicyclo[3.2.1]octan-3-yl}-7-(8-ethyl-3-hydroxynaphthalen-1-yl)-8-fluoropyrido[4,3-d]pyrimidin-2-yl)oxy]ethyl}-octahydro-1H-pyrrolo[3,4-c]pyridin-2-yl]-1,2-oxazol-5-yl}-3-methylbutanoyl]-4-hydroxy-N-[(1S)-1-[4-(4-methyl-1,3-thiazol-5-yl)phenyl]ethyl]pyrrolidine-2-carboxamide] yielded a Dmax of 80 to 100% and a DC50 below 600 nM.
Consider `CCc1cccc2cc(O)cc(-c3ncc4c(N5CC6CCC(C5)N6)nc(OCCN5CC[C@H]6CN(c7cc([C@@H](C(=O)N8C[C@H](O)C[C@H]8C(=O)N[C@@H](C)c8ccc(-c9scnc9C)cc8)C(C)C)on7)C[C@H]6C5)nc4c3F)c12` (relative stereo) [Compound 70, (2S,4R)-1-[(2R*)-2-{3-[(3aR**,7aR***)-5-{2-[(4-{3,8-diazabicyclo[3.2.1]octan-3-yl}-7-(8-ethyl-3-hydroxynaphthalen-1-yl)-8-fluoropyrido[4,3-d]pyrimidin-2-yl)oxy]ethyl}-octahydro-1H-pyrrolo[3,4-c]pyridin-2-yl]-1,2-oxazol-5-yl}-3-methylbutanoyl]-4-hydroxy-N-[(1S)-1-[4-(4-methyl-1,3-thiazol-5-yl)phenyl]ethyl]pyrrolidine-2-carboxamide], for which the 50% degradation concentration (DC50) was above 3000 nM.

As usually defined, the DC50 is the concentration giving 50% degradation. Read a low DC50 as a more potent degrader. In general, Dmax refers to the largest share of the target that was removed.
